Values belong to the molecule of their own block, whether it stands above or below them. Where a SMILES comes first, the peptide text is derived from it.
Assays:
[1] = FUTHAN compared with aprotinin and AEBSF; cited from earlier work
[2] = tested on: Stratum Corneum Tryptic Enzyme (SCTE); settings: reported rosacea study; cited from earlier work
pancreatic kallikrein = pancreatic kallikrein (Homo sapiens, UniProt P06870); assay: enzyme inhibition pancreatic kallikrein; assay type: biochemical; settings: approximate; read-out: IC50 (50% inhibition) pancreatic kallikrein
Chain of pancreatic kallikrein (P06870 25-262): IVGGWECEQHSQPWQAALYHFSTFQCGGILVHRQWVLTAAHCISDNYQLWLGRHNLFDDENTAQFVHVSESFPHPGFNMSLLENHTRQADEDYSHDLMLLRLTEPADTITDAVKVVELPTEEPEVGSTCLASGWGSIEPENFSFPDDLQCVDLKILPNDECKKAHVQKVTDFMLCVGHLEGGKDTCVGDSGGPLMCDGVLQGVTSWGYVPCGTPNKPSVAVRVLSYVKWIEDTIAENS

various serine proteases = assay: inhibition of various serine proteases compared with known inhibitors; assay type: biochemical; settings: FIG. 3
[3] = tested on: total protease activity in skin extracts; assay: inhibition of total protease activity in skin extracts; assay type: biochemical, human; settings: skin extracts from three individuals; FIG. 2
KLK5/SCTE = molecular target: T1, KLK5/SCTE (Homo sapiens, UniProt Q9Y337); assay: enzyme inhibition KLK5/SCTE; assay type: biochemical; settings: approximate; read-out: IC50 (50% inhibition) KLK5/SCTE
T1 sequence (Q9Y337 23-293): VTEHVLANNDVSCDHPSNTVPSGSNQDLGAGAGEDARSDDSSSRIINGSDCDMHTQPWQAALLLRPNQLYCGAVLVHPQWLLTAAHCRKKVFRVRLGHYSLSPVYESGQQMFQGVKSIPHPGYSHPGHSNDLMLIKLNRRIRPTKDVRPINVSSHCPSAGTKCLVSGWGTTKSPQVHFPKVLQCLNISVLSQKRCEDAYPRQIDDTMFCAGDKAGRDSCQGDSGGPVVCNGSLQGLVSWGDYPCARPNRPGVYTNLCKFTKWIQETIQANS
From the text: (§1) It is understood that aspartame, FUTHAN, and combinations thereof may be utilized.

chymotrypsin = chymotrypsin (Bos taurus, UniProt P00766); settings: literature (Niinobe et al., Fujii et al.); cited from earlier work
KLK7/SCCE = KLK7/SCCE (Homo sapiens, UniProt P49862); assay: enzyme inhibition KLK7/SCCE; assay type: biochemical; settings: approximate; read-out: IC50 (50% inhibition) KLK7/SCCE
Chain of KLK7/SCCE (P49862 30-253): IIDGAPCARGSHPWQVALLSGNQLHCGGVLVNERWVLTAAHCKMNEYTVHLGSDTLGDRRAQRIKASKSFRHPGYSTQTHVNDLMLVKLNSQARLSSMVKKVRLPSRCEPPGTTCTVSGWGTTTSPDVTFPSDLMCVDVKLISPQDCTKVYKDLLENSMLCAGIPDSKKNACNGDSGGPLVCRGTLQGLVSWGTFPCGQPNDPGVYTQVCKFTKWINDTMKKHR
From the text: as §1

[4] = chronic anemia patients using fruit flavored drink with aspartame; assay type: in vivo, human; settings: fruit flavored drink combination with aspartame
From the text: The current invention may utilize a pharmaceutically effective amount of aspartame or Asp-Phe for the treatment of sickle cell anemia and or chronic anemia in general. […] It is also contemplated that the current invention may be utilized as a food supplement product with beneficial attributes to chronic anemia patients which may include most cancer patients under treatment.

SRT-ORT mouse model = assay: SRT-ORT osteoarthritis mouse model, aspartame chow, X-ray analyses; assay type: in vivo; settings: chow containing 4 mg Aspartame/g, 12-18 months, vs non-supplemented chow
From the text: It has been reported that isotopically labeled Aspartame/Asp-Phe distributes to various tissues including the bones (See Aspartame Physiology and Biochemistry, Ed. Stegink, Lewis, D. and Filner, L. J. (1984), Marcel Decker, NY, Chapter 8, “Tissue Distribution of Orally Administered Isotopically Labeled Aspartame in Rat.” By Matsuzawa, Y., O'Hara, Y., pp. 161-199.). It is well established that the ester group on aspartame is labile to both acid hydrolysis, as exists in the stomach, and to enzyme esterases that are common to all body fluids and tissues. […] It is contemplated that this mechanism will enhance the transfer of essential minerals from the digestive system to the blood, tissues, and cells. Further evidence that aspartame (Asp-Phe) ingestion contributes to muscle (tissue) density and bone density enhancement comes from mouse studies. The SRT-ORT mouse model is a genetically deficient mouse strain obtained from NIH with a natural history of developing osteoarthritis. Blinded experiments were conducted with littermates divided into two groups, one fed chow containing 4 mg Aspartame/g. and the other fed non-supplemented chow over a period of 12-18 months. X-ray analyses were performed on the cortex and marrow spaces of the right and left femurs, as well as the quadriceps in the femoris area and joint calcification. […] The increase in calcification in the treated animal cohort at the injured joints gave a P value <0.0001. An unexpected increase in quadriceps muscle mass index for the treated animals gave a P value of 0.0185. These analyses were preformed on an n value of 23 animals in the treated set and 18 animals in the controls. Therefore, it is contemplated that animals fed aspartame over an extended time period have increased bone density and muscle mass indicating increased or enhanced calcium, and perhaps other minerals, bioavailability and utility.

[5] = aspartame lotion on acetic acid burn; assay type: in vivo, human; settings: lotion application; burn from acetic acid spilled on an individual's leg
From the text: It is also contemplated that the current invention may also help the redness of the skin and/or promote healing for the same injury.

[6] = pigs fed aspartame over a two month period: bleeding time and platelet count; assay type: in vivo; settings: pigs fed 75-300 mg aspartame/100 weight/day over a two month period
From the text: Recent chemical evidence has documented the mechanism of the analgesia and blood thinning properties of ASP as attributable in part to the compound's ability to inhibit the cyclo-oxygenase enzymes known as COX-1 and COX-2. […] It is contemplated that a preferred embodiment may use a coated tablet or pill that may prevent or reduce hydrolysis of the aspartame ester group in the acidic conditions of the stomach.

COX-1 = COX-1 (Homo sapiens, UniProt P23219); assay: COX-1 enzyme inhibition
Chain of COX-1 (P23219 24-599): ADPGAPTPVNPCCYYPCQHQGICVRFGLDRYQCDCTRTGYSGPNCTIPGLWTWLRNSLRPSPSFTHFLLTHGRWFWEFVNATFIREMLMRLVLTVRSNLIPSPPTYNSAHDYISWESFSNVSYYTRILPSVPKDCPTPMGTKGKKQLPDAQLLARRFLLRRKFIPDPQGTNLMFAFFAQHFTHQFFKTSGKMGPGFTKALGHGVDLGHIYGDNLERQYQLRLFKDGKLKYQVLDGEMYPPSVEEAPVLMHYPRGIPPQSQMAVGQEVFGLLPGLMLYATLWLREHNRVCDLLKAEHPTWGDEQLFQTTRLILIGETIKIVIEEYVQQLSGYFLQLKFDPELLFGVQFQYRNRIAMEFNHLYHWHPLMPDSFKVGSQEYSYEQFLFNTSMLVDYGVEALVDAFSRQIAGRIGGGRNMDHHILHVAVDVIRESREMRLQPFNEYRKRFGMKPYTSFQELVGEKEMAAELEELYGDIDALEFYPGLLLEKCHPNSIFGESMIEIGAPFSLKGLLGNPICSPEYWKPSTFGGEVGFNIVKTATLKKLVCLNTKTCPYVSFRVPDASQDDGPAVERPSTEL

COX-2 = molecular target: T2, COX-2 (Homo sapiens, UniProt P35354); assay: COX-2 enzyme inhibition
T2 sequence (P35354 18-604): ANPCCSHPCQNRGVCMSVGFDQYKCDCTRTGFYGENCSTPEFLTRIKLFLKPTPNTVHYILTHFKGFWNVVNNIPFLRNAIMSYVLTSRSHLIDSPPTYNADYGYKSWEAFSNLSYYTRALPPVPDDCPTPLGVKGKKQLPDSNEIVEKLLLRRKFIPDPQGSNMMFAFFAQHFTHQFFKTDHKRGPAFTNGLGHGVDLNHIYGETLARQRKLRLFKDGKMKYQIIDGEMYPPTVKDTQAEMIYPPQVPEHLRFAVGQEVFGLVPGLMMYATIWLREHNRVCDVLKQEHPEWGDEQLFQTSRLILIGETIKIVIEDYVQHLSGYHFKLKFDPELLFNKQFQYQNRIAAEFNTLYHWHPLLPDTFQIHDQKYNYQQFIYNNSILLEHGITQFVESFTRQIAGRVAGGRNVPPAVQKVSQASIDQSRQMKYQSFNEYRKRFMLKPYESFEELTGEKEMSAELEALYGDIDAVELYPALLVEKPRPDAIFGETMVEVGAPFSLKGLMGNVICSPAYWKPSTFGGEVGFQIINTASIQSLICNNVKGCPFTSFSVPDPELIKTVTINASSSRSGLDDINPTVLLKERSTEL

[7] = bone density in human subjects ingesting aspartame (bone scans, dental records); settings: subject
[8] = in excess of 300 mg/day for several years

Molecule: NCCc1ccc(S(=O)(=O)F)cc1 [AEBSF, 4-(2-aminoethyl)-benzenesulfonyl fluoride]
toxicity / side effects [1]: known serious side effects
inhibition of SCTE [2]: effective in inhibiting this enzyme

Molecule: CS(=O)(=O)O.CS(=O)(=O)O.N=C(N)Nc1ccc(C(=O)Oc2ccc3cc(C(=N)N)ccc3c2)cc1 [FUTHAN, 6-amidino-2-naphthyl p-guanidinobenzoate dimethanesulfonate]
IC50 (pancreatic kallikrein): ~20 µM
inhibitor strength compared with aprotinin and AEBSF (various serine proteases): weaker
inhibition of total protease activity in skin extracts [3]: efficacy of the inhibitor
IC50 (KLK5/SCTE): ~2 µM
inhibition of chymotrypsin or enzymes with chymotrypsin specificity (chymotrypsin): not chymotrypsin
IC50 (KLK7/SCCE): ~80 µM

IC50 (COX-1): < 1 µM
IC50 (COX-2): < 1 µM
Molecule: COC(=O)[C@H](Cc1ccccc1)NC(=O)[C@@H](N)CC(=O)O [aspartame, N-L-alpha-aspartyl-L-phenylalanine 1-methyl ester] (H-Asp-Phe-OMe)
energy and muscle pain in chronic anemia patients [4]: more energy and less muscle pain
calcification at the injured joints (SRT-ORT mouse model; P value <0.0001): increase
cortical bone density (SRT-ORT mouse model; P value of 0.0058): increase
quadriceps muscle mass index (SRT-ORT mouse model; P value of 0.0185): increase
pain associated with a burn [5]: relieved the pain
bleeding times [6]: significantly increased
platelet counts [6]: elevated
bone density from dental records ([7]; 150-300 mg/day over several years): bone density increase
density of the right and left femur, mean [7, 8]: 1.2 g/cm2
femur density relative to the density of a young adult [7, 8]: 122%
lumbar spine bone density (L1-L4) [7, 8]: 1.74 g/cm2
lumbar spine bone density relative to the density of a young adult [7, 8]: 148%

Molecule: Aprotinin
toxicity / side effects [1]: known serious side effects
inhibition of SCTE [2]: effective in inhibiting this enzyme
